The text below walks through data of patent publication US20230365590A1, “BIPHENYL COMPOUND AS IMMUNOMODULATOR, PREPARATION METHOD THEREFOR AND APPLICATION THEREOF” (SHENZHEN CHIPSCREEN BIOSCIENCES CO., LTD., priority 2020, published 2023).

What is called EC50 is the concentration that produces a half-maximal response.

Experiment [1] deals with PD-1/PD-L1 binding (recombinant human PD-L1-Fc fusion protein and His-PD-1 protein) (Homo sapiens (Human), UniProt Q9NZQ7). Kind of experiment: In vitro inhibitory activity against PD-1/PD-L1 binding (HTRF). The conditions noted are these: read-out: IC50 for inhibiting PD-1/PD-L1 binding in vitro. An excerpt: Homogeneous time resolved fluorescence method (HTRF): This method uses the recombinant human PD-L1 protein fused with hFc tag and the recombinant human PD-1 protein fused with His tag, which are interacting ligands and receptors. When the anti-hFc antibody containing chelated Eu tag and the anti-His antibody containing XL665 fluorescein tag are used to bind with the above two corresponding tags respectively and are excited by 320 nm laser, energy can be transferred from Eu element to XL665 fluorescein due to ligand receptor binding, and the XL665 fluorescein is excited to emit light with a wavelength of 665 nm. When an inhibitor for inhibiting interaction of PD-L1 and PD-1 is added, the binding of the ligand and the receptor is destroyed, causing a long distance between Eu and XL665. As a result, the energy cannot be transferred, and the XL665 fluorescein will not be excited.
Experimental Materials and Devices The recombinant human PD-1 protein with His tag (His-PD-1 protein, Cat #: 10377-H08H-50) and the recombinant human PD-L1-Fc fusion protein (PD-L1-Fc fusion protein, Cat #: 10084-H02H-100) were purchased from Sino Biological Inc., anti-hFc-Eu^3+ antibody and anti-His-XL665 antibody were purchased from Cisbio, and other related reagents such as a diluent buffer (diluent buffer 5 (Cat #: 62DL5DDC) and a detection buffer (PPI-European detection buffer, Cat #: 61DB9RDF) were purchased from Cisbio. Fluorescence detector Tecan (Spark 10M) was purchased from Tecan Company in Switzerland.
The experiment process was carried out according to the flow required in the operating manual of the test reagent. The process was as follows: • (1) Experiment preparation: A test compound was diluted to different concentration gradients with the dilution buffer (the highest final concentration in a 20 μL final reaction system was 10 μM). The His-PD-1 protein was diluted to 800 nM (the final concentration in the 20 final reaction system was 100 nM). The PD-L1-Fc fusion protein was diluted to 16 nM (the final concentration was 2 nM). […] All tests were conducted by use of multiple holes. • (4) The fluorescence detector Tecan (Spark 10M) was used to detect the fluorescence signal of each hole. The excitation wavelength was 320 nm, and the emission wavelengths for detection were 620 nm and 665 nm, respectively. The strength of PD-1/PD-L1 binding refers to a fluorescence signal ratio Em665/Em620. • (5) Calculation formula of binding inhibition rate of test compound: Inhibition rate (%)=[1−(fluorescence signal ratio of detected hole−fluorescence signal ratio of 100% inhibition negative control)]/(fluorescence signal ratio of 0% inhibition positive control−fluorescence signal ratio of 100% inhibition negative control)×100%. The 50% inhibition concentration (IC50) was calculated after the PD-1/PD-L1 binding inhibition rates of the test compound with different concentration gradients were calculated respectively.

The subject of experiment [2] is PD-1/PD-L1 mediated inhibitory signal to T cell activation (CHO-PD-L1-CD3L cells and Jurkat-PD-1-NFAT cells). The experiment can be described thus: Blocking of PD-1/PD-L1 mediated inhibitory signal to T cell activation at cell level (NFAT luciferase reporter, co-culture). The conditions noted are these: Homo sapiens, CHO-PD-L1-CD3L / Jurkat-PD-1-NFAT co-culture, 6 h. Type of experiment: cell-based. The protocol:
In order to test the effect of interaction between PD-1 and PD-L1 on T cell activation signal in immune response, CHO-PD-L1-CD3L cells stably expressing human PD-L1 molecule and anti-CD3 single-chain antibody (ScFv) and Jurkat-PD-1-NFAT cells stably expressing human PD-1 molecule and NFAT reporter gene were constructed. When two kinds of cells are incubated together, anti-CD3 ScFv on the CHO cell surface and membrane CD3 molecule of Jurkat cell combine to transmit an activation signal into Jurkat cell. However, due to the binding of PD-L1 on the CHO cell surface and PD-1 molecule on the Jurkat cell surface at the same time, a signal for inhibiting activation is transmitted inward, so that luciferase reporter gene cannot be expressed. When an immunocheckpoint antibody or small-molecule inhibitor is added, the binding of PD-1 and PD-L1 is blocked, the NFAT pathway activated by CD3 ScFv antibody and CD3 cross-linking mediated T cell activation signal is no longer affected by the inhibitory signal, and the downstream luciferase reporter gene starts to be expressed. Chemiluminescence signals proportional to reporter gene activation can be detected by adding a catalytic substrate.
CHO-PD-L1-CD3L cells expressing human PD-L1 molecule and anti-CD3 single-chain antibody (ScFv) and Jurkat-PD-1-NFAT cells stably expressing human PD-1 molecule and NFAT reporter gene were all independently constructed and presented by Dr. Chen Bo (KeyMed Biosciences (Chengdu) Co., Ltd. Puromycin (Cat # 540411) and Hygromycin B (Cat # V900372) for stable culture of transfected cells were purchased from Sigma, PMA (Cat # P1585) was purchased from Sigma, and the anti human PD-L1 antibody (Cat # GMP-A066) was purchased from Novoprotein Company. The Luciferase substrate solution (Cat # E6485) and the luciferase-specific cell lysate 5×(Cat # E1531) were purchased from Promega company. The fluorescence detector Tecan (Spark 10M) was purchased from Tecan Company in Switzerland.
Main Process of Experiment • (1) On the day before the experiment, 100 μL of CHO-PD-L1-CD3L cells (about 4×10^4 cells/well) were inoculated at 37° C. overnight in a 96-well cell culture plate, and the culture medium was DMEM/F12 containing 10% FBS, 8 μg/mL Puromycin and 200 μg/mL Hygromycin B. • (2) The test compound was diluted with 0.1% PBST to obtain solutions with different concentration gradients, and then added into 96-well plates and incubated for 30 min in advance. The RPMI 1640 complete medium containing 10% FBS, 8 μg/mL Puromycin and 200 μg/mL Hygromycin B was used to adjust the Jurkat-PD-1-NFAT cell count to 2×10^5 cells/mL, and 100 ng/mL PMA (10 mg/mL storage solution prepared with DMSO) was added to amplify the T cell activation signal. 100 μL of the Jurkat-PD-1-NFAT cells were added into each well of the 96-well plates for co-culture. • (3) During the test reaction, control groups were set, including the solvent control without adding the test compound and the positive control with the addition of the […] in the experimental system. All tests were conducted by use of multiple holes. • (4) Incubation was continued at 37° C. for 6 h, 40 μL of 5×cell lysate was added directly, the solution was mixed well and placed at room temperature for 10 min to completely lyse cells. 50 μL of lysed cell solution was transferred to a fluorescence detection plate, 30 μL of luciferase substrate solution was then added, and the chemiluminescence detection program was immediately selected on the fluorescence detector for determination. • (5) Calculation formula of the inhibition rate of the test compound against T cell activation signal at the cell level: The inhibition rate against T cell activation signal (%)=(original chemiluminescence value of the test hole−solvent control)/(the highest original chemiluminescence value determined in the compound test hole−solvent control)×100%. […]
(A reporter such as luciferase makes a cellular process visible.)

PD-1/PD-L1 binding (recombinant human PD-L1-Fc fusion protein and His-PD-1 protein), sequence (Q9NZQ7 19-239): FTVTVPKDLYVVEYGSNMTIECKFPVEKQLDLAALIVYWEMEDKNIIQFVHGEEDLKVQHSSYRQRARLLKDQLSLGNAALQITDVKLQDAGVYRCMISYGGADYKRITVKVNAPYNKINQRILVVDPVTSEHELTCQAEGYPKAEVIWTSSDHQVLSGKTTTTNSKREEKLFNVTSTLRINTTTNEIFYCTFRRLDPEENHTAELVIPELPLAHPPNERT

With `COCC12CCC(CCCN3CCc4c(nc(C(=O)Nc5cccc(-c6cccc(NC(=O)c7nc8c(n7C)CCN(CCC79CCC(C(=O)O)(CC7)C9)C8)c6C)c5Cl)n4C)C3)(CC1)C2` [Compound I-1, 4-(2-(2-((2′-chloro-3′-(5-(3-(4-(methoxymethyl)bicyclo[2. 2.1]heptan-1-yl)propyl)-1-methyl-4,5,6,7-tetrahydro-1H-imidazo[4,5-c]pyridine-2-carboxamido) -2-methyl-[1,1′-biphenyl]-3-yl)carbamoyl)-1-methyl-1,4,6,7-tetrahydro-5H-imidazo[4,5-c]pyridin-5-yl)ethyl)bicyclo[2.2.1]heptane-1-carboxylic acid], the IC50 in experiment [1] came to 1.47 nM. Further, a half-maximal response in experiment [2] (EC50) required 33.9 nM.
On the same counts, the results for `COCC12CCC(CCCN3CCc4c(nc(C(=O)Nc5cccc(-c6cccc(NC(=O)c7nc8c(n7C)CCN(CCC79CCC(C(=O)O)(CC7)C9)C8)c6Cl)c5C)n4C)C3)(CC1)C2` [Compound I-2, 4-(2-(2-((2-chloro-3′-(5-(3-(4-(methoxymethyl)bicyclo[2.2.1]heptan-1-yl)propyl)-1-methyl-4,5,6,7-tetrahydro-1H-imidazo[4,5-c]pyridine-2-carboxamido)-2′-methyl-[1,1′-biphenyl]-3-yl)carbamoyl)-1-methyl-1,4,6,7-tetrahydro-5H-imidazo[4,5-c]pyridin-5-yl)ethyl)bicyclo[2.2.1]heptane-1-carboxylic acid] are 1.32 nM and 18.1 nM.
The corresponding values for `CCOCC12CCC(CCN3CCc4c(nc(C(=O)Nc5cccc(-c6cccc(NC(=O)c7nc8c(n7C)CCN(CCC79CCC(C(=O)O)(CC7)C9)C8)c6C)c5Cl)n4C)C3)(CC1)C2` [Compound I-3, 4-(2-(2-((2′-chloro-3′-(5-(2-(4-(ethoxymethyl)bicyclo[2.2.1]heptan-1-yl)ethyl)-1-methyl-4,5 ,6,7-tetrahydro-1H-imidazo[4,5-c]pyridine-2-carboxamido)-2-methyl-[1,1′-biphenyl]-3-yl)carbamoyl)-1-methyl-1,4,6,7-tetrahydro-5H-imidazo[4,5-c]pyridin-5-yl)ethyl)bicyclo[2.2.1]heptane-1-carboxylic acid] are 1.19 nM and 17 nM.
The corresponding values for `COCC12CCC(CCN3CCc4c(nc(C(=O)Nc5cccc(-c6cccc(NC(=O)c7nc8c(n7C)CCN(CCC79CCC(C(=O)O)(CC7)C9)C8)c6C)c5Cl)n4C)C3)(CC1)C2` [Compound I-4, 4-(2-(2-((2′-chloro-3′-(5-(2-(4-(methoxymethyl)bicyclo[2. 2.1]heptan-1-yl)ethyl)-1-methyl-4,5,6,7-tetrahydro-1H-imidazo[4,5-c]pyridine-2-carboxamido)-2-methyl-[1 ,1′-biphenyl]-3-yl)carbamoyl)-1-methyl-1,4,6,7-tetrahydro-5H-imidazo[4,5-c]pyridin-5-yl)ethyl)bicyclo[2.2.1]heptane-1-carboxylic acid] are 1.89 nM and 28.3 nM.
Consider `COCC12CCC(CCN3CCc4c(nc(C(=O)Nc5cccc(-c6cccc(NC(=O)c7nc8c(n7C)CCN(CCC79CCC(C(=O)O)(CC7)C9)C8)c6Cl)c5C)n4C)C3)(CC1)C2` [Compound I-5, 4-(2-(2-((2-chloro-3′-(5-(2-(4-(methoxymethyl)bicyclo[2.2.1]heptan-1-yl)ethyl)-1-methyl-4,5,6,7-tetrahydro-1H-imidazo[4,5-c]pyridine-2-carboxamido)-2′-methyl-[1,1′-biphenyl]-3-yl)carbamoyl)-1-methyl-1,4,6,7-tetrahydro-5H-imidazo [4,5-c]pyridin-5-yl)ethyl)bicyclo[2.2.1]heptane-1-carboxylic acid], for which the IC50 in experiment [1] was found to be 2.35 nM. The same compound gave an EC50 in experiment [2] of 26.7 nM.
In turn, `COCC12CCC(CCN3CCc4c(nc(C(=O)Nc5cccc(-c6cccc(NC(=O)c7nc8c(n7C)CCN(CCC79CCC(C(=O)O)(CC7)C9)C8)c6Cl)c5Cl)n4C)C3)(CC1)C2` [Compound I-6, 4-(2-(2-((2,2′-dichloro-3′-(5-(2-(4-(methoxymethyl)bicyclo[2.2.1]heptan-1-yl)ethyl)-1-methyl-4,5,6,7-tetrahydro-1H-imidazo[4,5-c]pyridine-2-carboxamido)-[1, 1′-biphenyl]-3-yl)carbamoyl)-1-methyl-1,4,6,7-tetrahydro-5H-imidazo[4,5-c]pyridin-5-yl)ethyl)bicyclo[2.2.1]heptane-1-carboxylic acid] gave an EC50 in experiment [2] of 15.8 nM.
For the compound `Cn1c(C(=O)Nc2cccc(-c3cccc(NC(=O)c4nc5c(n4C)CCN(CCC46CCC(C(=O)O)(CC4)C6)C5)c3Cl)c2Cl)nc2c1CCN(CCC13CCC(COC(F)F)(CC1)C3)C2` [Compound I-7, 4-(2-(2-((2,2′-dichloro-3′-(5-(2-(4-((difluoromethoxy)methyl)bicyclo[2.2.1]heptan-1-yl)ethyl)-1-methyl-4,5,6,7-tetrahydro-1H-imidazo[4,5-c]pyridine-2-carboxamido)-[1,1′-biphenyl]-3-yl)carbamoyl)-1-methyl-1,4,6,7-tetrahydro-5H-imidazo[4,5-c]pyridin-5-yl)ethyl)bicyclo[2.2.1]heptane-1-carboxylic acid], in experiment [1], the IC50 was found to be 0.29 nM. This compound also returned an EC50 in experiment [2] of 39.2 nM.
